Reference: patent publication US9518038B2, “Condensation product of theanine derivative and carboxylic acid coumarin derivative, its intermediate, preparation method and use thereof” (SHANDONG YINGDONG YINGHAO BIOTECHNOLOGY, INC., priority 2012, dated 2016)

Key:
[1] = tested on: human breast cancer cells MCF-7; test: MTT growth inhibition, MCF-7 cells; format: cell-based; settings: MCF7, 72 h after treatment, read-out: Drug concentration (IC50) at which 50% cancer cells survived
Description: (§1) Cell lines and cell culture: human lung cancer cells A549 and H460, human breast cancer cells MCF-7 and MDA-MB-231, human gastric cancer cells BGC-823, human prostate cancer cells PC-3, human chronic leukemia cells K562, human lymphoma cells U937, human liver cancer cells SMMC7721 and HepG2, human colon cancer cells HT29, human pancreatic cancer cells PANC-1 and BxPC3, human cervical cancer Hela cell lines, human brain tumor cells Daoy, human neuroma cells D54 and human oral epidermoid cancer cells KBV200 line with strong drug resistance, mouse melanoma cells B16, and highly metastatic Lewis lung cancer cell lines were purchased from American Type Culture Collection of the U.S. These cells were cultured with DMEM and RPMI-1640 culture solutions separately.
(§2) The procedure was as follows:
(§3) (1) 0.25% trypsin was used to digest cancer cells in a logarithmic growth phase to prepare a single-cell suspension, the concentration of cells was adjusted to 5×10^4/mL, and the adjusted suspension was inoculated into a 96-well culture plate with 100 μl per well;
(§4) (2) The culture plate was transferred into a 37° C. incubator with a saturated humidity and 5% of CO2 and cultured for 24 h; the compounds and the intermediates thereof obtained in embodiments 1-7 and the compound as represented by formula (IIIa) or the positive control anti-cancer drug with the concentration of 1-1000 μM/L were added to enable the final concentration to be 0.1-1500 μM/L. Control wells (only added with 200 μl of cell suspension) and drug-free blank control wells (containing the solvent of 0.01% DMSO) were set, each group included 8 wells, and the plate was placed into the 37° C. incubator with saturated humidity and 5% of CO2 for culturing;
(§5) (3) The 96-well plate was taken out at 48 h and 72 h after dosing, the original culture medium was carefully removed by suction, 100 μl of serum-free DMEM culture medium and 10 μl of MTT (5 mg/mL) solution were added in each well. The plate was continuously cultured for another 4 h and then the culture was terminated;
(§6) (4) The supernatant in the wells was carefully removed by suction, each well was added with 150 μl of DMSO and shaked at room temperature for 10-15 min to fully dissolve crystals.
(§7) (5) Colorimetric analysis: the wavelength was selected as 570 nm, the light absorbance (A value) of each well was determined on the microplate reader and the results were recorded; the experiment was repeated for three times;
(§8) (6) the experimental results were calculated according to the following formula: relative survival rate=(A value of each experimental group/A value of cell control group)×100%
(§9) Calculation of median-effect concentration (IC50, namely the drug concentration at which the inhibition rate is 50%, also known as half inhibitory concentration):
(§10) IC50 of the detected component was calculated by using a regression equation.

[2] = tested on: human lung cancer cells A549; test: MTT growth inhibition, A549 cells; format: cell-based; settings: 72 h after treatment, read-out: Drug concentration (IC50) at which 50% cancer cells survived
Description: as §1, §2, §3, §4, §5, §6, §7, §8, §9, §10

[3] = tested on: human cervical cancer Hela cell lines; test: MTT growth inhibition, Hela cells; format: cell-based; settings: Homo sapiens, 72 h after treatment, read-out: Drug concentration (IC50) at which 50% cancer cells survived
Description: as §1, §2, §3, §4, §5, §6, §7, §8, §9, §10

[4] = tested on: human pancreatic cancer cells BxPC3; test: MTT growth inhibition, BxPc3 cells; format: cell-based; settings: Homo sapiens, BXPC-3, 72 h after treatment, read-out: Drug concentration (IC50) at which 50% cancer cells survived
Description: as §1, §2, §3, §4, §5, §6, §7, §8, §9, §10

[5] = tested on: human lymphoma cells U937; test: MTT growth inhibition, U937 cells; format: cell-based; settings: Homo sapiens, U-937, 72 h after treatment, read-out: Drug concentration (IC50) at which 50% cancer cells survived
Description: as §2, §5, §6, §7, §8, §10

[6] = tested on: human breast cancer cells MDA-MB-231; test: MTT growth inhibition, MDA-MB-231 cells; format: cell-based; settings: 72 h after treatment, read-out: Drug concentration (IC50) at which 50% cancer cells survived
Description: as §1, §2, §3, §4, §5, §6, §7, §8, §9, §10

[7] = tested on: human brain tumor cells Daoy; test: MTT growth inhibition, Daoy cells; format: cell-based; settings: Homo sapiens, 72 h after treatment, read-out: Drug concentration (IC50) at which 50% cancer cells survived
Description: as §1, §2, §3, §4, §5, §6, §7, §8, §9, §10

[8] = tested on: human prostate cancer cells PC-3; test: MTT growth inhibition, PC-3 cells; format: cell-based; settings: 72 h after treatment, read-out: Drug concentration (IC50) at which 50% cancer cells survived
Description: as §1, §2, §3, §4, §5, §6, §7, §8, §9, §10

[9] = tested on: human liver cancer cells SMMC7721; test: MTT growth inhibition, SMMC7721 cells; format: cell-based; settings: SMMC-7721, S-7721 (SMMC7721), 72 h after treatment, read-out: Drug concentration (IC50) at which 50% cancer cells survived
Description: as §1, §2, §3, §4, §5, §6, §7, §8, §9, §10

[10] = tested on: mouse melanoma cells B16; test: MTT growth inhibition, B16 cells; format: cell-based; settings: Mus musculus, 72 h after treatment, read-out: Drug concentration (IC50) at which 50% cancer cells survived
Description: as §1, §2, §3, §4, §5, §6, §7, §8, §9, §10

[11] = tested on: human pancreatic cancer cells PANC-1; test: MTT growth inhibition, PANC-1 cells; format: cell-based; settings: 72 h after treatment, read-out: Drug concentration (IC50) at which 50% cancer cells survived
Description: as §1, §2, §3, §4, §5, §6, §7, §8, §9, §10

[12] = tested on: human neuroma cells D54; test: MTT growth inhibition, D54 cells; format: cell-based; settings: Homo sapiens, 72 h after treatment, read-out: Drug concentration (IC50) at which 50% cancer cells survived
Description: as §1, §2, §3, §4, §5, §6, §7, §8, §9, §10

[13] = tested on: human liver cancer cells HepG2; test: MTT growth inhibition, HepG2 cells; format: cell-based; settings: 72 h after treatment, read-out: Drug concentration (IC50) at which 50% cancer cells survived
Description: as §1, §2, §3, §4, §5, §6, §7, §8, §9, §10

[14] = tested on: human oral epidermoid cancer cells KBV200; test: MTT growth inhibition, KBV200 cells; format: cell-based; settings: 72 h after treatment, read-out: Drug concentration (IC50) at which 50% cancer cells survived
Description: as §1, §2, §3, §4, §5, §6, §7, §8, §9, §10

[15] = tested on: human lung cancer cells H460; test: MTT growth inhibition, H460 cells; format: cell-based; settings: NCI-H460, 72 h after treatment, read-out: Drug concentration (IC50) at which 50% cancer cells survived
Description: as §1, §2, §3, §4, §5, §6, §7, §8, §9, §10

[16] = tested on: human colon cancer cells HT29; test: MTT growth inhibition, HT29 cells; format: cell-based; settings: HT-29, 72 h after treatment, read-out: Drug concentration (IC50) at which 50% cancer cells survived
Description: as §1, §2, §3, §4, §5, §6, §7, §8, §9, §10

[17] = tested on: human chronic leukemia cells K562; test: MTT growth inhibition, K562 cells; format: cell-based; settings: 72 h after treatment, read-out: Drug concentration (IC50) at which 50% cancer cells survived
Description: as §1, §2, §3, §4, §5, §6, §7, §8, §9, §10

[18] = tested on: Caski human cervical cancer cells; test: MTT growth inhibition, Caski cells; format: cell-based; settings: Ca-Ski, 72 h after treatment, read-out: Drug concentration (IC50) at which 50% cancer cells survived
[19] = tested on: highly metastatic Lewis lung cancer cell lines; test: MTT growth inhibition, LLC cells; format: cell-based, mouse; settings: Mus musculus, Lewis lung carcinoma, 72 h after treatment, read-out: Drug concentration (IC50) at which 50% cancer cells survived
Description: as §1, §2, §3, §4, §5, §6, §7, §8, §9, §10

[20] = tested on: human gastric cancer cells BGC-823; test: MTT growth inhibition, BGC-823 cells; format: cell-based; settings: 72 h after treatment, read-out: Drug concentration (IC50) at which 50% cancer cells survived
Description: as §1, §2, §3, §4, §5, §6, §7, §8, §9, §10

## O=C(O)c1cc2cc(Br)cc(Br)c2oc1=O [Compound IIIh, 6,8-dibromo-coumarin-3-carboxylic acid]
[1]
  IC50: 450 µM
[2]
  IC50: 450 µM
[3]
  IC50: 290 µM
[4]
  IC50: 400 µM
[5]
  IC50: 390 µM
[6]
  IC50: 420 µM
[7]
  IC50: 350 µM
[8]
  IC50: 410 µM
[9]
  IC50: 530 µM
[10]
  IC50: 460 µM
[11]
  IC50: 480 µM
[12]
  IC50: 300 µM
[13]
  IC50: 145 µM
[14]
  IC50: 300 µM
[15]
  IC50: 550 µM
[16]
  IC50: 590 µM
[17]
  IC50: 480 µM
[18]
  IC50: 135 µM
[19]
  IC50: 350 µM
[20]
  IC50: 480 µM
